We go through 19 substances from patent US20050181376A1, “Antisense modulation of microsomal triglyceride transfer protein expression” (ISIS Pharmaceuticals, Inc., priority 2001, published 2005).

Strand notation (5' to 3'): a small letter for the sugar, then the base; units joined by * are phosphorothioate-linked, units joined directly phosphodiester-linked; [ ] holds rarer units or linkages, { } end groups; capitals alone tell only the bases. e = 2'-O-(2-methoxyethyl) (MOE); [5mC] = 5-methylcytosine; d = 2'-deoxy (DNA)

One series concerns human microsomal triglyceride transfer protein mRNA. In words: Antisense inhibition of human microsomal triglyceride transfer protein mRNA levels, quantitative real-time PCR. Note: test concentration or dose not given here. The settings on record: averages from two experiments. (Quantitative PCR measures a nucleic acid by following its amplification.)
Regarding “144448 (e[5mC]*e[5mC]*e[5mC]*eG*eT*d[5mC]*dA*dT*dG*d[5mC]*dT*dT*dA*dA*dG*eG*eA*eA*eG*eT) [compound 144448]”, the “% INHIB (inhibition of human microsomal triglyceride transfer protein mRNA levels)” value (shortened to “% INHIB”) came out at 49%.

For “144429 (e[5mC]*eT*eT*eG*eA*d[5mC]*dG*dT*d[5mC]*d[5mC]*dA*dT*dG*dT*dA*eG*eG*eA*eT*eG; antisense) [compound 144429]”, the “% INHIB” value was 0%.

In the case of “CCAGTTGTGTGACCTTTAAC (antisense e[5mC]*e[5mC]*eA*eG*eT*dT*dG*dT*dG*dT*dG*dA*d[5mC]*d[5mC]*dT*eT*eT*eA*eA*e[5mC]) [ISIS 144410]”, the “% INHIB” value was “at least 30%”.

On to “144414 (eG*eA*eT*eT*eA*dG*dA*dT*dG*dA*dA*dG*dG*dA*dG*e[5mC]*eG*eT*eA*eG; antisense) [compound 144414]”, for which the “% INHIB” value stood at 0%.

With “144424 (eA*eG*e[5mC]*eA*eG*dA*dT*dA*d[5mC]*dA*dT*d[5mC]*d[5mC]*dT*dG*eG*eT*eG*eT*e[5mC]; antisense) [compound 144424]”, the “% INHIB” value amounted to 23%.

For “144437 (eG*eT*eA*e[5mC]*eT*dG*dG*dT*dT*dT*d[5mC]*d[5mC]*dA*dG*dG*e[5mC]*e[5mC]*eA*eG*e[5mC]; antisense) [compound 144437]”, the “% INHIB” value amounted to 32%.

Take “144435 (eG*eA*eT*eA*e[5mC]*d[5mC]*dA*d[5mC]*dA*dA*dG*d[5mC]*dT*dA*dA*eA*e[5mC]*eT*e[5mC]*e[5mC]; antisense) [compound 144435]”: the “% INHIB” value stood at 0%.

For “144442 (e[5mC]*eG*e[5mC]*eT*eG*dT*dG*d[5mC]*dT*d[5mC]*dT*d[5mC]*dA*dG*dA*eG*eA*eG*e[5mC]*eA; antisense) [compound 144442]”, the “% INHIB” value came out at 57%.

As to “144412 (eG*e[5mC]*eG*eG*eT*dA*dG*d[5mC]*d[5mC]*d[5mC]*dA*d[5mC]*dG*d[5mC]*dT*eG*eT*e[5mC]*eT*eT; antisense) [compound 144412]”, the “% INHIB” value is listed as 34%.

As to “CGCTGTGCTCTCAGAGAGCA (antisense e[5mC]*eG*e[5mC]*eT*eG*dT*dG*d[5mC]*dT*d[5mC]*dT*d[5mC]*dA*dG*dA*eG*eA*eG*e[5mC]*eA) [ISIS 144442]”, the “% INHIB” value is listed as “at least 30%”.

“144438 (eG*e[5mC]*eT*eT*e[5mC]*dA*dT*d[5mC]*d[5mC]*dT*dT*dG*dT*d[5mC]*d[5mC]*eA*eT*e[5mC]*eT*eG; antisense) [compound 144438]”: the “% INHIB” value came out at 53%.

In the case of “144422 (e[5mC]*e[5mC]*eT*eG*eG*dA*dG*dG*dA*dT*dA*dA*dT*dG*d[5mC]*eT*eG*e[5mC]*eT*eG; antisense) [compound 144422]”, the “% INHIB” value amounted to 37%.

Consider “144409 (eT*e[5mC]*eA*eT*eA*dT*dT*dG*dA*d[5mC]*d[5mC]*dA*dG*d[5mC]*dA*eA*eT*e[5mC]*e[5mC]*eT; antisense) [compound 144409]”, for which the “% INHIB” value amounted to 31%.

For the substance “TCATATTGACCAGCAATCCT (antisense eT*e[5mC]*eA*eT*eA*dT*dT*dG*dA*d[5mC]*d[5mC]*dA*dG*d[5mC]*dA*eA*eT*e[5mC]*e[5mC]*eT) [ISIS 144409]”, the “% INHIB” value is “at least 30%”.

Take “144445 (eG*eA*eT*eT*eT*dG*dA*dG*dA*dG*dA*dG*dG*dT*dA*eT*eA*eA*eG*eT; antisense) [compound 144445]”: the “% INHIB” value is 18%.

As to “144444 (eG*eA*eT*eG*eA*dT*dT*d[5mC]*dA*dA*dA*dA*dT*dG*dA*e[5mC]*eG*e[5mC]*eT*eG; antisense) [compound 144444]”, the “% INHIB” value stood at 32%.

“GTAGCATACTGCATATACCC (antisense eG*eT*eA*eG*e[5mC]*dA*dT*dA*d[5mC]*dT*dG*d[5mC]*dA*dT*dA*eT*eA*e[5mC]*e[5mC]*e[5mC]) [ISIS 144443]”: the “% INHIB” value is “at least 30%”.

On to “GCTTCATCCTTGTCCATCTG (antisense eG*e[5mC]*eT*eT*e[5mC]*dA*dT*d[5mC]*d[5mC]*dT*dT*dG*dT*d[5mC]*d[5mC]*eA*eT*e[5mC]*eT*eG) [ISIS 144438]”, for which the “% INHIB” value was “at least 30%”.

Another series shares this test system.
Assay: not given
Conditions: not given
“GATGATTCAAAATGACGCTG (chemistry not given here) [ISIS 144444]”: the “% INHIB” value is on record as “at least 30%”.
